Where “and” joins values, the source holds several entries; their conditions need not be identical. Equal entries are not always repeated. Toxic doses and inconclusive results are not listed.
Tested on: BDF1 mice, P388 leukemia ip, median survival T/C
Assay: NCI In Vivo Anticancer Drug Screen. Data for tumor model P388 Leukemia (intraperitoneal) in B6D2F1 (BDF1) mice
Conditions: endpoint: median survival time, higher = longer survival
Experimental: The antitumor activity of compounds was measured in mice bearing transplantable tumors. Survival or tumor size were measured and the results are expressed as the measurement made in the treated group (T) divided by the measurement made in the vehicle treated control group (C). The tumor model used in this assay is P388 Leukemia (intraperitoneal) in B6D2F1 (BDF1) mice

[1] = dose: 100.0 mg/kg/injection, schedule: Q04DX003 (ip), vehicle: saline
[2] = dose: 25.0 mg/kg/injection, schedule: Q01DX009 (ip), vehicle: saline with Tween-80
[3] = dose: 200.0 mg/kg/injection, schedule: Q01DX009 (ip), vehicle: Klucel (hydroxypropylcellulose) (HPC)
[4] = dose: 50.0 mg/kg/injection, schedule: Q01DX009 (ip), vehicle: saline with Tween-80
[5] = dose: 100.0 mg/kg/injection, schedule: Q01DX009 (ip), vehicle: saline with Tween-80
[6] = dose: 200.0 mg/kg/injection, schedule: Q01DX009 (ip), vehicle: saline with Tween-80
[7] = dose: 400.0 mg/kg/injection, schedule: Q04DX003 (ip), vehicle: saline with Tween-80
[8] = dose: 200.0 mg/kg/injection, schedule: Q04DX003 (ip), vehicle: saline
[9] = dose: 400.0 mg/kg/injection, schedule: Q04DX003 (ip), vehicle: saline
[10] = dose: 100.0 mg/kg/injection, schedule: Q04DX003 (ip), vehicle: saline with Tween-80
[11] = dose: 200.0 mg/kg/injection, schedule: Q04DX003 (ip), vehicle: saline with Tween-80

With `CC1CN1P(=O)(N1CCCC1)N1CC1C` (stereo not given) the T/C (dose: 12.5 mg/kg/injection, schedule: Q04DX003 (ip), vehicle: saline) was 102 % of control, the T/C (dose: 25.0 mg/kg/injection, schedule: Q01DX009 (ip), vehicle: saline) was 156 % of control and the T/C (dose: 25.0 mg/kg/injection, schedule: Q04DX003 (ip), vehicle: saline) was 105 % of control. The T/C (dose: 32.0 mg/kg/injection, schedule: Q01DX009 (ip), vehicle: saline) was 155 % of control, the T/C (dose: 37.5 mg/kg/injection, schedule: Q01DX009 (ip), vehicle: saline) was 173 % of control and the T/C (dose: 50.0 mg/kg/injection, schedule: Q04DX003 (ip), vehicle: saline) was 169 % of control. For the same molecule, the T/C (dose: 64.0 mg/kg/injection, schedule: Q01DX009 (ip), vehicle: saline) was 87 % of control and the T/C [1] was 179 % of control.

For `S=C1Cc2[nH]c(=S)sc(=S)c2C(=S)N1`, the T/C (dose: 6.25 mg/kg/injection, schedule: Q01DX009 (ip), vehicle: saline with Tween-80) was 95 % of control, the T/C (dose: 12.5 mg/kg/injection, schedule: Q01DX009 (ip), vehicle: saline with Tween-80) was 99 % of control and the T/C [2] was 101 % of control.

With `O=C(COc1ccccc1)NCCO` the T/C (dose: 100.0 mg/kg/injection, schedule: Q01DX009 (ip), vehicle: Klucel (hydroxypropylcellulose) (HPC)) was 100 % of control, the T/C (dose: 100.0 mg/kg/injection, schedule: Q04DX003 (ip), vehicle: Klucel (hydroxypropylcellulose) (HPC)) was 91 % of control and the T/C [3] was 100 % of control. For the same molecule, the T/C (dose: 200.0 mg/kg/injection, schedule: Q04DX003 (ip), vehicle: Klucel (hydroxypropylcellulose) (HPC)) was 91 % of control, the T/C (dose: 400.0 mg/kg/injection, schedule: Q01DX009 (ip), vehicle: Klucel (hydroxypropylcellulose) (HPC)) was 100 % of control and the T/C (dose: 400.0 mg/kg/injection, schedule: Q04DX003 (ip), vehicle: Klucel (hydroxypropylcellulose) (HPC)) was 91 % of control.

In the case of `CC=NC(C[S-])C(=O)O.CC=NC(C[S-])C(=O)O.[Fe+2]` (stereo not given), the T/C [4] is reported as 110 % of control, the T/C [5] is reported as 100 % of control and 105 % of control and the T/C [6] is reported as 100 % of control and 104 % of control.

With `C/C=C(\C)C(=O)OCC1CC[N+](C)([O-])C1` (stereo not given) the T/C (dose: 50.0 mg/kg/injection, schedule: Q01DX009 (ip), vehicle: water) was 103 % of control, the T/C (dose: 100.0 mg/kg/injection, schedule: Q01DX009 (ip), vehicle: water) was 100 % of control and the T/C (dose: 200.0 mg/kg/injection, schedule: Q01DX009 (ip), vehicle: water) was 103 % of control. For the same molecule, the T/C (dose: 400.0 mg/kg/injection, schedule: Q01DX009 (ip), vehicle: water) was 119 % of control.

`O=C(O)c1ccccc1N=Cc1ccccc1O` was tested, and the T/C (dose: 176.0 mg/kg/injection, schedule: Q04DX003 (ip), vehicle: saline with Tween-80) was 109 % of control, the T/C (dose: 264.0 mg/kg/injection, schedule: Q04DX003 (ip), vehicle: saline with Tween-80) was 109 % of control and the T/C [7] was 109 % of control.

In the case of `C=C(C)C1CCC2(C=O)CCC3(C)C(CCC4C5(C)CCC(O)C(C)(C)C5CCC43C)C12` (stereo not given), the T/C (dose: 18.75 mg/kg/injection, schedule: Q01DX009 (ip), vehicle: Klucel (hydroxypropylcellulose) (HPC)) is reported as 91 % of control, the T/C (dose: 37.5 mg/kg/injection, schedule: Q01DX009 (ip), vehicle: Klucel (hydroxypropylcellulose) (HPC)) is reported as 88 % of control and the T/C (dose: 75.0 mg/kg/injection, schedule: Q01DX009 (ip), vehicle: Klucel (hydroxypropylcellulose) (HPC)) is reported as 95 % of control.

`Cc1ccc(NC(=O)OCCSCCOC(=O)Nc2ccc(C)cc2)cc1` was tested, and the T/C (dose: 25.0 mg/kg/injection, schedule: Q04DX003 (ip), vehicle: other) was 95 % of control, the T/C (dose: 50.0 mg/kg/injection, schedule: Q04DX003 (ip), vehicle: other) was 90 % of control and the T/C (dose: 100.0 mg/kg/injection, schedule: Q04DX003 (ip), vehicle: other) was 90 % of control. The T/C (dose: 200.0 mg/kg/injection, schedule: Q04DX003 (ip), vehicle: other) was 90 % of control and the T/C (dose: 400.0 mg/kg/injection, schedule: Q04DX003 (ip), vehicle: other) was 100 % of control.

`Cc1ccc2c(c1)SSc1ccc(C)cc1SS2` was tested, and the T/C [4] was 103 % of control, the T/C [5] was 109 % of control and the T/C [6] was 114 % of control.

`CNC(=S)NN` was tested, and the T/C [1] was 100 % of control, the T/C (dose: 200.0 mg/kg/injection, schedule: Q01DX001 (ip), vehicle: saline) was 100 % of control and the T/C [8] was 90 % of control. For the same molecule, the T/C [9] was 100 % of control.

With `OCCOCC(F)(F)F` the T/C [2] was 98 % of control, the T/C [4] was 105 % of control and the T/C [5] was 88 % of control and 108 % of control. The T/C (dose: 100.0 mg/kg/injection, schedule: Q01DX009 (ip), vehicle: saline) was 122 % of control, the T/C [10] was 100 % of control and the T/C [1] was 100 % of control. For the same molecule, the T/C (dose: 200.0 mg/kg/injection, schedule: Q01DX009 (ip), vehicle: saline) was 122 % of control, the T/C [11] was 123 % of control and the T/C [8] was 100 % of control. For the same molecule, the T/C (dose: 400.0 mg/kg/injection, schedule: Q01DX009 (ip), vehicle: saline) was 111 % of control, the T/C [7] was 88 % of control and the T/C [9] was 90 % of control.

For `Nc1ccc(SCc2nc3cccc4c3n2CCC4)cc1`, the T/C [10] was 91 % of control, the T/C [11] was 95 % of control and the T/C [7] was 95 % of control.

For `CO[C@@H]1[C@@H](OC2OC(C)C(OC3CC(C)(O)C(OC(=O)CC(C)C)C(C)O3)C(N(C)C)C2O)[C@@H](CC=O)C[C@@H](C)C(=O)/C=C/C2O[C@H]2C[C@@H](C)OC(=O)C[C@H]1OC(C)=O` (stereo not given in full), the T/C (dose: 50.0 mg/kg/injection, schedule: Q#A X020 (ip), vehicle: water) was 109 % of control, the T/C (dose: 100.0 mg/kg/injection, schedule: Q01DX001 (ip), vehicle: water) was 110 % of control and the T/C (dose: 100.0 mg/kg/injection, schedule: Q01DX010 (ip), vehicle: water) was 118 % of control. The T/C (dose: 100.0 mg/kg/injection, schedule: Q#A X020 (ip), vehicle: water) was 118 % of control, the T/C (dose: 150.0 mg/kg/injection, schedule: Q#A X020 (ip), vehicle: water) was 118 % of control and the T/C (dose: 200.0 mg/kg/injection, schedule: Q01DX001 (ip), vehicle: water) was 100 % of control. For the same molecule, the T/C (dose: 200.0 mg/kg/injection, schedule: Q01DX010 (ip), vehicle: water) was 109 % of control, the T/C (dose: 200.0 mg/kg/injection, schedule: Q#A X020 (ip), vehicle: water) was 118 % of control and the T/C (dose: 300.0 mg/kg/injection, schedule: Q01DX010 (ip), vehicle: water) was 118 % of control. For the same molecule, the T/C (dose: 400.0 mg/kg/injection, schedule: Q01DX001 (ip), vehicle: water) was 90 % of control, the T/C (dose: 600.0 mg/kg/injection, schedule: Q01DX001 (ip), vehicle: water) was 100 % of control and the T/C (dose: 1000.0 mg/kg/injection, schedule: Q01DX010 (oral), vehicle: water) was 86 % of control. For the same molecule, the T/C (dose: 1500.0 mg/kg/injection, schedule: Q01DX010 (oral), vehicle: water) was 100 % of control.

With `O=NN(CCF)C(=O)NC1CCS(=O)(=O)CC1` the T/C (dose: 0.15 mg/kg/injection, schedule: Q04DX003 (ip), vehicle: saline) was 115 % of control and the T/C (dose: 0.3 mg/kg/injection, schedule: Q04DX003 (ip), vehicle: saline) was 120 % of control.

`CN1CCN(c2ccc([N+](=O)[O-])c3nonc23)CC1` was tested, and the T/C (dose: 10.0 mg/kg/injection, schedule: Q01DX009 (ip), vehicle: saline with Tween-80) was 100 % of control, the T/C (dose: 20.0 mg/kg/injection, schedule: Q01DX009 (ip), vehicle: saline with Tween-80) was 100 % of control and the T/C (dose: 20.0 mg/kg/injection, schedule: Q04DX003 (ip), vehicle: saline with Tween-80) was 100 % of control. For the same molecule, the T/C (dose: 40.0 mg/kg/injection, schedule: Q01DX009 (ip), vehicle: saline with Tween-80) was 99 % of control and the T/C (dose: 40.0 mg/kg/injection, schedule: Q04DX003 (ip), vehicle: saline with Tween-80) was 92 % of control.

`CCSc1nc(Cl)cc(Sc2nc(N)nc3nc[nH]c23)n1` was tested, and the T/C (dose: 17.0 mg/kg/injection, schedule: Q01DX010 (ip), vehicle: acetone) was 113 % of control, the T/C (dose: 18.0 mg/kg/injection, schedule: Q01DX009 (ip), vehicle: Klucel (hydroxypropylcellulose) (HPC)) was 115 % of control and the T/C (dose: 26.0 mg/kg/injection, schedule: Q01DX010 (ip), vehicle: acetone) was 168 % of control. For the same molecule, the T/C (dose: 40.0 mg/kg/injection, schedule: Q01DX010 (ip), vehicle: saline) was 150 % of control, the T/C (dose: 60.0 mg/kg/injection, schedule: Q01DX010 (ip), vehicle: saline) was 165 % of control and the T/C (dose: 132.0 mg/kg/injection, schedule: Q01DX010 (ip), vehicle: saline) was 110 % of control. For the same molecule, the T/C [3] was 95 % of control and the T/C (dose: 200.0 mg/kg/injection, schedule: Q01DX010 (ip), vehicle: saline) was 90 % of control.

Source: PubChem BioAssay AID328 (DTP/NCI, 2004)
